From the supplement of paper PMC13380429

Columns and labels:
Details in all cases: 72 h
[1] = system: Caco-2; assay: cell viability relative to DMSO; higher = less toxic
[2] = system: Calu-3; assay: as above
[3] = system: HepG2; assay: as above
[4] = system: U2OS; assay: as above
[5] = system: Vero E6; assay: as above
[6] = system: Caco-2; assay: relative viability EC50 (midpoint between 100% and the lowest measured viability); higher = less toxic
[7] = system: Calu-3; assay: as above
[8] = system: HepG2; assay: as above
[9] = system: U2OS; assay: as above
[10] = system: Vero E6; assay: as above
[11] = system: Caco-2; assay: drug sensitivity score (DSS) for viability; higher = more toxic; extreme values may be limits of the assay
[12] = system: Calu-3; assay: as above
[13] = system: HepG2; assay: as above
[14] = system: U2OS; assay: as above
[15] = system: Vero E6; assay: as above

Row | SMILES | cell viability ([1]; 1 nM) | cell viability ([1]; 10 nM) | cell viability ([1]; 100 nM) | cell viability ([1]; 1000 nM) | cell viability ([1]; 10000 nM) | cell viability ([2]; 1 nM) | cell viability ([2]; 10 nM) | cell viability ([2]; 100 nM) | cell viability ([2]; 1000 nM) | cell viability ([2]; 10000 nM) | cell viability ([3]; 1 nM) | cell viability ([3]; 10 nM) | cell viability ([3]; 100 nM) | cell viability ([3]; 1000 nM) | cell viability ([3]; 10000 nM) | cell viability ([4]; 1 nM) | cell viability ([4]; 10 nM) | cell viability ([4]; 100 nM) | cell viability ([4]; 1000 nM) | cell viability ([4]; 10000 nM) | cell viability ([5]; 1 nM) | cell viability ([5]; 10 nM) | cell viability ([5]; 100 nM) | cell viability ([5]; 1000 nM) | cell viability ([5]; 10000 nM) | relative viability EC50 [6] | relative viability EC50 [7] | relative viability EC50 [8] | relative viability EC50 [9] | relative viability EC50 [10] | drug sensitivity score [11] | drug sensitivity score [12] | drug sensitivity score [13] | drug sensitivity score [14] | drug sensitivity score [15]
1 | C[C@@H]1CN(c2c(F)c(F)c3c(=O)c(C(=O)O)cn(C4CC4)c3c2F)C[C@H](C)N1 [orbifloxacin] | 110% | 105% | 109% | 103% | 94.6% | 113% | 97.9% | 112% | 92.8% | 107% | 98.2% | 110% | 94.8% | 100% | 92.1% | 99.5% | 97.5% | 95.3% | 97.6% | 101% | 105% | 110% | 101% | 100% | 94.5% | > 10 µM | > 10 µM | > 10 µM | > 10 µM | > 10 µM | 0 | 0 | 0 | 0 | 0
2 | CCn1cc(C(=O)O)c(=O)c2cc3c(cc21)OCO3 [oxolinic-acid] | 109% | 98.9% | 85.3% | 102% | 78.4% | 89.1% | 99.9% | 94.2% | 106% | 93.2% | 97% | 108% | 113% | 108% | 94.1% | 101% | 101% | 96.2% | 103% | 97% | 98.5% | 109% | 109% | 93.6% | 95% | > 10 µM | > 10 µM | > 10 µM | > 10 µM | > 10 µM | 0.6 | 0 | 0 | 0 | 0
3 | O=C(O)/C=C/c1ccc(Cn2ccnc2)cc1 [ozagrel] | 92.4% | 101% | 96.7% | 98.6% | 94.9% | 98% | 100% | 99.7% | 106% | 92.3% | 95% | 91.9% | 101% | 95.7% | 100% | 97.8% | 100% | 95.1% | 99.7% | 93.2% | 97.5% | 103% | 95.2% | 101% | 101% | > 10 µM | > 10 µM | > 10 µM | > 10 µM | > 10 µM | 0 | 0 | 0 | 0 | 0
4 | C1=N/C2=N/c3ccc(OCCN4CCCC4)c(c3)COC/C=C/COCc3cccc(c3)C(=C1)N2 [pacritinib] | 88.9% | 95.2% | 94.6% | 87.7% | 26% | 104% | 96.5% | 95.6% | 102% | 27.8% | 94.2% | 102% | 89.4% | 92.1% | 0.8% | 90.3% | 91.6% | 101% | 89.7% | 1.5% | 96.3% | 94.9% | 94.7% | 94.7% | 7.2% | 1.9 µM | 3.34 µM | 2.51 µM | 2.3 µM | 2.71 µM | 6.1 | 3.8 | 6.7 | 7.1 | 5.9
5 | Cc1[nH]c2ccccc2c1CCNCc1ccc(/C=C/C(=O)NO)cc1 [panobinostat] | 99.8% | 110% | 68.4% | 1% | 1.1% | 113% | 113% | 67.8% | 17.5% | 6% | 104% | 80.6% | 36.8% | -0.3% | -0.4% | 99.2% | 97% | 62.4% | 1.4% | 0.8% | 101% | 97.8% | 70.8% | -0.4% | -0.5% | 0.136 µM | 0.175 µM | 0.052 µM | 0.127 µM | 0.142 µM | 22.3 | 19.4 | 26.6 | 22.6 | 22.3
6 | C[N+]1(CCCCC[N+]2(C)CCCC2)CCCC1 [pentolinium] | 99% | 109% | 124% | 107% | 88.7% | 97.1% | 91.2% | 110% | 94% | 88.1% | 79.4% | 99.3% | 96% | 112% | 97.6% | 94.2% | 98.7% | 100% | 99.2% | 102% | 96.3% | 105% | 102% | 101% | 108% | > 10 µM | > 10 µM | > 10 µM | > 10 µM | > 10 µM | 0 | 0.3 | 0 | 0 | 0
7 | CC(=O)O[C@H]1C[C@@H]2CC[C@@H]3[C@H](CC[C@@]4(C)[C@H]3C[C@H](N3CC[N+](C)(C)CC3)[C@@H]4OC(C)=O)[C@@]2(C)C[C@@H]1N1CC[N+](C)(C)CC1 [pipecuronium] | 93.7% | 103% | 91.2% | 96.7% | 97% | 87.8% | 102% | 90.2% | 111% | 96.7% | 97.8% | 94.2% | 97.4% | 96.8% | 92.3% | 101% | 104% | 97.7% | 105% | 96.9% | 100% | 94.7% | 92.5% | 95.5% | 99.2% | > 10 µM | > 10 µM | > 10 µM | > 10 µM | > 10 µM | 0 | 0 | 0 | 0 | 0
